Source: US20260240851A1, “Treatment of Parkinson's Disease in a Patient Using a Glucocerebrosidase Activator” (BIAL - R&D Investments, S.A., priority 2023, published 2026)
Like-named read-outs stand apart in the source and are kept apart here.

Assays:
[1] = BIA 28-6156-107: safety and tolerability; format: in vivo, human
[2] = system: GluCer, GluSph and LacCer in PBMCs and plasma; test: LTI-291-004: glycolipid biomarkers; format: in vivo, human
Protocol: This study was a Phase 1B, randomized, double-blind, placebo-controlled, multiple oral dose study of Compound A in 14 subjects (aged 51 to 81 years) with GBA-PD. The objectives of this study were to investigate the safety, tolerability, and PK of multiple once-daily oral administration of Compound A and to explore the accompanying pharmacodynamic changes. Subjects received once-daily oral doses of 10 mg (n=6) or 60 mg (2×30 mg capsules) (n=6) Compound A or placebo (n=2) for 28 consecutive days. PK samples were measured once on Day 7 and Day 14 and 4 times after the last dose on Day 28. Plasma concentrations were summarized at each time point, and no PK parameters were estimated. The PD evaluations included fMRI measures; FDG-PET to determine the metabolic rate of glucose in specific regions of the brain; and functional outcome measures (MDS-UPDRS Part III and the MMSE). GluCer, GluSph, and LacCer and other sphingolipids were measured in PBMCs and plasma as biomarkers of pharmacological effect.

[3] = J. M den Heijer, 2021; cited from earlier work
[4] = LTI-291-003 multiple dose study in GBA-PD: plasma and CSF pharmacokinetics; format: in vivo, human; conditions: for Tmin / Tmax: median; for Kp at 4 h / Cmax / AUC(0-t) / Tmax: human, oral; for Kp at 4 h: CSF and plasma, after the 28th daily dose, read-out: CSF-to-plasma concentration ratio, mean (SD); for Cmax / AUC(0-t) / Tmax: plasma
Text: This study was a Phase 1b, randomized, double-blind, placebo-controlled, multiple oral dose study of Compound A in 40 subjects (aged 40 to 80 years) with GBA-PD. Approximately 50% of the enrolled subjects had major (loss of 30%-50% total activity) mutations in GCase and 50% had polymorphism mutation (loss of 10%-20% of total activity) mutations in GCase. The objectives of this study were to investigate the safety, tolerability, and PK of multiple once-daily oral administration of Compound A and to explore the accompanying pharmacodynamic changes in subjects with GBA-PD with major and polymorphism mutations. Subjects received once-daily oral doses of 10 mg (n=10), 30 mg (n=10), or 60 mg (2×30 mg capsules) (n=10) Compound A or placebo (n=10) for 28 consecutive days.
Blood samples for Compound A concentrations were collected up to 6 hours after the first and last doses. CSF samples for Compound A concentrations were taken before the first dose and 4 hours after the last dose for each dose level.

[5] = 10 mg daily, dose 28, GBA-PD, geometric mean
[6] = 30 mg daily, dose 1, GBA-PD, geometric mean
[7] = 30 mg daily, dose 28, GBA-PD, geometric mean
[8] = 60 mg daily, dose 1, GBA-PD, geometric mean
[9] = 60 mg daily, dose 28, GBA-PD, geometric mean

CCCCCO[C@H]1CC[C@H](NC(=O)c2cnn3c(C)cc(C)nc23)CC1 [Compound A, 5,7-dimethyl-N-((1S*,4S)-4-(pentyloxy)cyclohexyl)pyrazolo[1,5-a]pyrimidine-3-carboxamide]
AEs ([1]; 60 mg Compound A with 25 mg/100 mg immediate-release carbidopa-levodopa): No AEs were reported
subjects reporting AEs ([1]; 60 mg Compound A with 300 mg extended-release carbamazepine): 25.0%
subjects reporting AEs ([1]; after 60 mg Compound A alone, 12 subjects): 16.7%
SAEs ([1]; in vivo): No SAEs were reported
vital signs, physical examinations, ECG parameters, C-SSRS ([1]; in vivo): no clinically significant safety observations
PBMC glycolipid levels ([2]; 10 or 60 mg daily for 28 days, GBA-PD): Significant changes
Plasma LacCer ([2]; upon Compound A treatment): tended to decrease
plasma GluCer or GluSph ([2]; upon Compound A treatment): no effect was observed
safety and tolerability in healthy humans [3]: generally well tolerated
Cmax/dose ([4]; 10 mg daily, dose 1, GBA-PD, geometric mean): 25.4 ng/mL/mg
AUC0-last/dose ([4]; 10 mg daily, dose 1, GBA-PD, geometric mean (% CV)): 109 (32.8) ng · h/mL mg
AUC0-last/dose [4, 5]: 252 ng·h/mL/mg
Cmax/dose [4, 5]: 52.0 ng/mL/mg
Cmin [4, 5]: 0.246 µg/mL
Tmin ([4]; 10 mg daily, dose 28, GBA-PD): 26.3 h
AUC0-last/dose [4, 6]: 76.8 ng·h/mL/mg
Cmax/dose [4, 6]: 18.7 ng/mL/mg
AUC0-last/dose [4, 7]: 241 ng·h/mL/mg
Cmax/dose [4, 7]: 47.9 ng/mL/mg
Cmin [4, 7]: 0.788 µg/mL
Tmin ([4]; 30 mg daily, dose 28, GBA-PD): 26.1 h
AUC0-last/dose [4, 8]: 102 ng·h/mL/mg
Cmax/dose [4, 8]: 25.5 ng/mL/mg
Cmax/dose [4, 9]: 46.6 ng/mL/mg
Cmin [4, 9]: 1.37 µg/mL
AUC0-last/dose ([4]; 60 mg daily, dose 28, GBA-PD, geometric mean (% CV)): 234 (15.7) ng · h/mL mg
Tmin ([4]; 60 mg daily, dose 28, GBA-PD): 26.0 h
total exposure (Cmax and AUC0-last) versus dose ([4]; 10 to 60 mg, after 1st and 28th dose): increase in a dose proportional manner
time of peak plasma concentrations (median) ([4]; after the 1st and 28th daily dose): 2.0 h
Kp at 4 h ([4]; 10 mg): 0.0113
Kp at 4 h ([4]; 30 mg): 0.0122
Kp at 4 h ([4]; 60 mg): 0.0115
Cmax ([4]; 10 mg, 10 mg daily, dose 1, GBA-PD, geometric mean (% CV)): 0.254 µg/mL
AUC(0-t) ([4]; 10 mg, 10 mg daily, dose 1, GBA-PD, geometric mean, read-out: AUC0-6): 1.08 µg·h/mL
AUC(0-t) ([4]; 10 mg, 10 mg daily, dose 1, GBA-PD, geometric mean, read-out: AUC0-last): 1.09 µg·h/mL
Cmax ([4]; 10 mg, 10 mg daily, dose 28, GBA-PD, geometric mean): 0.52 µg/mL
AUC(0-t) ([4]; 10 mg, 10 mg daily, dose 28, GBA-PD, geometric mean, read-out: AUC0-6): 2.52 µg·h/mL
AUC(0-t) ([4]; 10 mg, 10 mg daily, dose 28, GBA-PD, geometric mean, read-out: AUC0-last): 2.52 µg·h/mL
Cmax ([4]; 30 mg, 30 mg daily, dose 1, GBA-PD, geometric mean (% CV)): 0.561 µg/mL
AUC(0-t) ([4]; 30 mg, 30 mg daily, dose 1, GBA-PD, geometric mean, read-out: AUC0-6): 2.3 µg·h/mL
AUC(0-t) ([4]; 30 mg, 30 mg daily, dose 1, GBA-PD, geometric mean, read-out: AUC0-last): 2.3 µg·h/mL
Cmax ([4]; 30 mg, 30 mg daily, dose 28, GBA-PD, geometric mean): 1.44 µg/mL
AUC(0-t) ([4]; 30 mg, 30 mg daily, dose 28, GBA-PD, geometric mean, read-out: AUC0-6): 7.23 µg·h/mL
AUC(0-t) ([4]; 30 mg, 30 mg daily, dose 28, GBA-PD, geometric mean, read-out: AUC0-last): 7.23 µg·h/mL
Cmax ([4]; 60 mg, 60 mg daily, dose 1, GBA-PD, geometric mean): 1.53 µg/mL
AUC(0-t) ([4]; 60 mg, 60 mg daily, dose 1, GBA-PD, geometric mean, read-out: AUC0-6): 6.08 µg·h/mL
AUC(0-t) ([4]; 60 mg, 60 mg daily, dose 1, GBA-PD, geometric mean, read-out: AUC0-last): 6.1 µg·h/mL
Cmax ([4]; 60 mg, 60 mg daily, dose 28, GBA-PD, geometric mean): 2.79 µg/mL
AUC(0-t) ([4]; 60 mg, 60 mg daily, dose 28, GBA-PD, geometric mean, read-out: AUC0-6): 14.1 µg·h/mL
AUC(0-t) ([4]; 60 mg, 60 mg daily, dose 28, GBA-PD, geometric mean, read-out: AUC0-last): 14.1 µg·h/mL
Tmax ([4]; 10 mg daily, dose 1, GBA-PD): 2 h
Tmax ([4]; 30 mg daily, dose 1, GBA-PD): 2 h
Tmax ([4]; 60 mg daily, dose 1, GBA-PD): 2 h
PK in healthy subjects versus subjects with GBA-PD ([4]; in vivo): similar
